Reference: patent publication EP4635954A1, “INDUCER FOR INDUCING MESENCHYMAL-EPITHELIAL TRANSITION AND REPROGRAMMING” (Iregene Therapeutics Co., Ltd, priority 2022, dated 2024)

Target: miR-145
Assay: Isothermal titration calorimetry (ITC), Nano-ITC
Format: binding
Settings: Multiple Sites model, 50 µM miR-145 in cell, 500 µM ligand in syringe
Source text: Isothermal titration calorimetry (ITC) operates based on the principle of power compensation and allows accurate determination of the enthalpy change associated with molecular interactions across a broad concentration range using a single titration experiment. It measures the heat change upon binding and provides a complete thermodynamic profile of nucleic acid-ligand interactions. Quantitative thermodynamic characterization of the complex is essential for understanding the molecular basis of the interaction between the microRNA miR-145 and the small molecule compound. In this invention, the Nano-ITC calorimeter from Waters Corporation was used to validate in vitro the interaction between nucleic acid and small molecule compounds. The experimental procedure involved placing 300 µL of singlestranded miR-145 solution at a concentration of 50 µM into a temperature-controlled sample cell, which was thermally coupled via a thermocouple circuit to a reference cell containing an equal volume of deionized water. As an example, the small molecule A-3-6 was prepared at a concentration of 500 µM and a volume of 50 µL, and loaded into the injection syringe as the ligand. The heat change in the sample cell was measured and balanced against the reference cell, appearing as either endothermic or exothermic peaks. […]

- Kd (site with nSite 1.8): 7.54 nM
- Kd (site with nSite 3): 70.2 nM
Compound: O=C(Cc1ccccc1)Nc1cc2cc[nH]c2cn1 [Compound A-3-6, 2-Phenyl-N-(1H-pyrrolo[2,3-c]pyridin-5-yl)acetamide]
